The values that follow come from patent US20170325453A1, “Herbicidal Mixtures for Controlling Herbicide-Resistant Dicotyledonous Plants” (priority 2014, published 2017).

Type in all cases: in vivo
In assay [1] the test system is Trichachne insularis (Digitaria insularis). The assay is described as follows: Example 2: visual control of Trichachne insularis (Digitaria insularis), post emergence (Table 16). As to conditions: visual control 0-100%, dose per numbered treatment. The procedure: (§1) The study was carried out in Brazil.
(§2) All treatments were applied in established weeds, post emergence, before weeds flowering. The treatments were applied using backpressure equipment (nozzles TEEJET8002) with a water consumption of 150 liters per hectare, 1.2 BAR.
(§3) 14, 21, 28, 35 and 42 days after application (“DAA”) evaluations were carried out, i.e. measuring the control of Trichachne insularis (Digitaria insularis) and its regrowth. The assessment consisted in a visual control level of weeds in which 0% related to absence of control and 100% to total control of weeds. The regrowth were assessed by comparing the emergence of new tillers in treatments versus the emergence of new tillers in check (non-treated control).
(§4) An analysis was carried out for viability rates applied through a variance analysis and a mean comparison test of Student—Newman-Keuls ([…]) with the ARM® statistical analysis package.

For assay [2] the test system is unchanged. The assay is described as follows: Example 2: regrowth of D. insularis, emergence of new tillers versus non-treated check (Table 17). As to conditions: post emergence; for regrowth of D. insularis 35 DAA: 35 days after application; for regrowth of D. insularis 42 DAA: 42 days after application. Set-up: scale not given here. The protocol:
as §1, §2, §3, §4

Another assay concerns Conyza bonariensis. The assay is described as follows: Example 3: control of Conyza bonariensis, viable weeds versus control plot, synergy by Colby. Set-up: key: % control, viable weeds vs. untreated control plot. To be noted: weeds 20 cm height at application.
Description: Synergism can be described as an interaction where the combined effect of two or more compounds is greater than the sum of the individual effects of each of the compounds. The presence of a synergistic effect in terms of percent control, between two mixing partners (X and Y) can be calculated using the Colby equation (Colby, S. R., 1967, Calculating Synergistic and Antagonistic Responses in Herbicide Combinations, Weeds, 15, 21-22):
When the observed combined control effect is greater than the expected (calculated) combined control effect (E), then the combined effect is synergistic. The synergistic effect may also be present when the observed combined control effect is equal to the expected (calculates) combined control effect, especially when control values over 90 are calculated.
Analogously, the Colby's equation can be used to determine synergism of 3-way and higher mixtures:
as §1
The applications carried out by a back pressure sprayer with T-jet nozzles (XR-110.02) covering 200 liters per hectare. At the time of application, Conyza bonariensis weeds were 20 cm height. The results assessed by the comparison between viable weeds at the control plot and the viable weeds at the treatments plots. To the experiment, the plot consist of a 20 m2 area (5 meters length and 4 meters width).
The synergy was calculated by Colby formula and it expansion for three-way mixtures

In the case of `O=C(O)CNCP(=O)(O)O` [Glyphosate, N-(phosphonomethyl)glycine], in assay [1], the “% of control, 28 DAA, Proved” value is 8.75%; the “% of control, 35 DAA, Proved” value is recorded as 6.25%; the “% of control, 42 DAA, Proved” value turned out to be 3.75%. In assay [2], the “regrowth of D. insularis 35 DAA” value was 61.25 and the “regrowth of D. insularis 42 DAA” value is 67.5. Also, in the assay with Conyza bonariensis (listed as 1 Glyphosate), the “Control of Conyza bonariensis 7 DAA Field Results” value was determined as 32.50 and the “Control of Conyza bonariensis 15 DAA Field Results” value amounted to 65.00. Further, in the assay on Conyza bonariensis (listed as 3 Glyphosate), the “Control of Conyza bonariensis 7 DAA Field Results” value is 15.00 and the “Control of Conyza bonariensis 15 DAA Field Results” value is recorded as 27.50.

As to `CCSC(C)CC1CC(=O)C(/C(CC)=N/OC/C=C/Cl)=C(O)C1` (racemic) [Clethodim, (RS)-2-[(E)-1-[(E)-3-chloroallyloxyimino]propyl]-5-[2-(ethylthio)propyl]-3-hydroxycyclohex-2-en-1-one], in assay [1], the “% of control, 28 DAA, Proved” value is on record as 62.5%; the “% of control, 35 DAA, Proved” value was 60%; the “% of control, 42 DAA, Proved” value is listed as 52.5%. In addition, in assay [2], the “regrowth of D. insularis 35 DAA” value is on record as 28 and the “regrowth of D. insularis 42 DAA” value was determined as 33.75.

With `CC(C)N(C)S(=O)(=O)NC(=O)c1cc(-n2c(=O)cc(C(F)(F)F)n(C)c2=O)c(F)cc1Cl` [Saflufenacil, N′-{2-chloro-4-fluoro-5-[1,2,3,6-tetrahydro-3-methyl-2,6-dioxo-4-(trifluoromethyl)pyrimidin-1-yl]benzoyl}-N-isopropyl-N-methylsulfannide], the entries for the “% of control, 28 DAA, Proved” value in assay [1] (listed as 05. Saflufenacil) and in assay [1] (listed as 06. Saflufenacil) were 5% and 6.25%, respectively. The “% of control, 35 DAA, Proved” value in assay [1] (listed as 05. Saflufenacil) was determined as 5%; in assay [1] (listed as 06. Saflufenacil), 6.25%. For the same molecule, in assay [1], the “% of control, 42 DAA, Proved” value was found to be 2.5%. The entries for the “regrowth of D. insularis 35 DAA” value in assay [2] (listed as 05. Saflufenacil) and in assay [2] (listed as 06. Saflufenacil) were 63.75 and 66.5, respectively. Moreover, the figures for the “regrowth of D. insularis 42 DAA” value in assay [2] (listed as 05. Saflufenacil) and in assay [2] (listed as 06. Saflufenacil) were 72.5 and 78.75, respectively. Besides, the “Control of Conyza bonariensis 7 DAA Field Results” value with Conyza bonariensis (listed as 4 Saflufenacil) worked out at 60.00; in the assay with Conyza bonariensis (listed as 5 Saflufenacil) it was 86.25. For the same molecule, the entries for the “Control of Conyza bonariensis 15 DAA Field Results” value in the assay with Conyza bonariensis (listed as 4 Saflufenacil) and with Conyza bonariensis (listed as 5 Saflufenacil) were 56.25 and 73.75, respectively.
